Experimental data as given in ChEMBL document CHEMBL1201862, “PubChem BioAssay data set” (2004).
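The compound was tested at five concentrations on cells cultured in 96-well plates, with a 48-hour exposure period. GI50: concentration for 50% inhibition of growth.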 Calls of active or inactive are those of the source. Rule as the data show it: active = GI50 up to about 1.1 µM and inactive = higher.

Experiments:
Experiment in all cases: inhibition of tumour cell growth, NCI panel, 48 h
OVCAR-4 = system: OVCAR-4
LOX IMVI = system: LOX IMVI
HL-60 = system: HL-60
U-251 = system: U-251
M14 = system: M14
OVCAR-5 = system: OVCAR-5
RPMI-8226 = system: RPMI-8226
ACHN = system: ACHN
SNB-75 = system: SNB-75
SF-539 = system: SF-539
KM12 = system: KM12
SK-OV-3 = system: SK-OV-3
K562 = system: K562
SK-MEL-5 = system: SK-MEL-5
A549 = system: A549
CCRF-CEM = system: CCRF-CEM
SR = system: SR

Measured: GI50

COc1ccc(C2Oc3cc(OC)c(O)cc3[C@@H]2C)cc1 (some centres undefined)
inactive: OVCAR-4 32.5 µM | LOX IMVI 14.3 µM | HL-60 18.2 µM | U-251 > 100 µM | M14 19.1 µM | OVCAR-5 > 100 µM | RPMI-8226 22.3 µM | ACHN 16.5 µM | SNB-75 3.08 µM | SF-539 > 100 µM | KM12 45 µM | SK-OV-3 > 100 µM | K562 31.5 µM | SK-MEL-5 31.1 µM | A549 59 µM | CCRF-CEM 15.5 µM

Cc1ccc2c(c1CCCC(C)(C)O)C(=O)C(O)=C(C(C)C)C2=O
inactive: OVCAR-4 > 100 µM | HL-60 46.6 µM | U-251 53.1 µM | M14 > 100 µM | RPMI-8226 39.1 µM | SR 41.2 µM | ACHN 63 µM | SNB-75 > 100 µM | SF-539 > 100 µM | KM12 > 100 µM | SK-OV-3 > 100 µM | K562 48.1 µM | SK-MEL-5 > 100 µM | A549 50.6 µM | CCRF-CEM 32.2 µM

C[P+](C)(C)c1ccccc1
inactive: OVCAR-4 > 100 µM | LOX IMVI > 100 µM | HL-60 > 100 µM | U-251 > 100 µM | M14 > 100 µM | OVCAR-5 > 100 µM | RPMI-8226 > 100 µM | SR > 100 µM | ACHN > 100 µM | SNB-75 > 100 µM | SF-539 > 100 µM | KM12 > 100 µM | SK-OV-3 > 100 µM | K562 > 100 µM | SK-MEL-5 > 100 µM | A549 > 100 µM | CCRF-CEM > 100 µM

Cn1c(=O)n(CC2CS2)c2ccccc21 (centres undefined)
inactive: OVCAR-4 > 100 µM | LOX IMVI > 100 µM | HL-60 71.6 µM | M14 > 100 µM | OVCAR-5 > 100 µM | RPMI-8226 > 100 µM | SR 99.3 µM | ACHN > 100 µM | SNB-75 > 100 µM | SF-539 > 100 µM | KM12 > 100 µM | SK-OV-3 > 100 µM | K562 > 100 µM | A549 > 100 µM | CCRF-CEM 70 µM

CCOC(=O)[C@H]1Nc2ccc(Cl)cc2[C@H]2OCC[C@@H]12
inactive: OVCAR-4 > 100 µM | LOX IMVI > 100 µM | HL-60 > 100 µM | U-251 > 100 µM | M14 > 100 µM | OVCAR-5 > 100 µM | ACHN > 100 µM | SNB-75 > 100 µM | SF-539 > 100 µM | KM12 > 100 µM | SK-OV-3 > 100 µM | K562 > 100 µM | SK-MEL-5 > 100 µM | A549 > 100 µM | CCRF-CEM > 100 µM

CN1OC(=O)N(C)C1c1ccccc1 (centres undefined)
inactive: OVCAR-4 > 100 µM | LOX IMVI > 100 µM | HL-60 > 100 µM | U-251 > 100 µM | OVCAR-5 > 100 µM | RPMI-8226 > 100 µM | SNB-75 > 100 µM | SF-539 > 100 µM | KM12 > 100 µM | SK-OV-3 > 100 µM | K562 > 100 µM | SK-MEL-5 > 100 µM | A549 > 100 µM | CCRF-CEM > 100 µM

COC(=O)C(Cc1nc2ccccc2nc1O)C(=O)C(=O)Nc1ccc(F)cc1 (centres undefined)
inactive: OVCAR-4 77.3 µM | LOX IMVI 41.3 µM | HL-60 45.5 µM | M14 74.8 µM | SR 33 µM | ACHN > 100 µM | SNB-75 28.8 µM | SF-539 37 µM | KM12 41 µM | SK-OV-3 > 100 µM | SK-MEL-5 > 100 µM | A549 > 100 µM | CCRF-CEM 27.3 µM

CC1(c2ccc(Cl)cc2)C2C(=O)NC(=O)C1C(=O)NC2=O (centres undefined)
inactive: OVCAR-4 > 100 µM | LOX IMVI > 100 µM | HL-60 > 100 µM | M14 > 100 µM | OVCAR-5 > 100 µM | RPMI-8226 > 100 µM | ACHN > 100 µM | SNB-75 > 100 µM | SF-539 > 100 µM | KM12 > 100 µM | SK-OV-3 > 100 µM | K562 > 100 µM | SK-MEL-5 > 100 µM | A549 > 100 µM | CCRF-CEM > 100 µM

COc1cc(OC)c(C#N)c(OC)c1C
inactive: OVCAR-4 > 100 µM | LOX IMVI > 100 µM | HL-60 > 100 µM | U-251 > 100 µM | OVCAR-5 98.4 µM | SR > 100 µM | ACHN > 100 µM | SF-539 > 100 µM | KM12 > 100 µM | SK-OV-3 > 100 µM | K562 > 100 µM | SK-MEL-5 > 100 µM | A549 > 100 µM | CCRF-CEM > 100 µM
